Tests used:
[1] = Volume of distribution at steady state in Wistar Han rat at 2 mg/kg, iv or 10 mg/kg, po; assay type: ADME, organism-based; conditions: in vivo, read-out: Vdss
[2] = molecular target: Voltage-gated inwardly rectifying potassium channel KCNH2 (Homo sapiens, UniProt Q12809); assay: Displacement of MK-0499 from human ERG
[3] = Fraction unbound in human plasma; assay type: ADME, cell-free
[4] = AUCN in Wistar Han rat at 10 mg/kg, po; assay type: ADME, organism-based; conditions: in vivo
[5] = molecular target: Cytochrome P450 2D6 (Homo sapiens, UniProt P10635); assay: Inhibition of CYP2D6 (unknown origin); assay type: ADME
[6] = Fraction unbound in human plasma at 2.5 uM by equilibrium dialysis; assay type: ADME, cell-free
[7] = Ratio of drug uptake in rat brain to plasma at 3 mg/kg, po measured after 24 hrs; assay type: ADME, organism-based; conditions: read-out: BPR
[8] = Drug uptake in rat brain at 3 mg/kg, po measured after 24 hrs; assay type: ADME, organism-based; conditions: in vivo
[9] = Half life in Wistar Han rat at 2 mg/kg, iv; assay type: ADME, organism-based; conditions: in vivo
[10] = Fraction unbound in Wistar Han rat plasma at 2.5 uM by equilibrium dialysis; assay type: ADME, cell-free
[11] = molecular target: T1, Nuclear receptor subfamily 1 group I member 2 (Homo sapiens, UniProt O75469); assay: Activation of PXR (unknown origin) assessed as CYP3A4 induction
T1 sequence (O75469 whole entry): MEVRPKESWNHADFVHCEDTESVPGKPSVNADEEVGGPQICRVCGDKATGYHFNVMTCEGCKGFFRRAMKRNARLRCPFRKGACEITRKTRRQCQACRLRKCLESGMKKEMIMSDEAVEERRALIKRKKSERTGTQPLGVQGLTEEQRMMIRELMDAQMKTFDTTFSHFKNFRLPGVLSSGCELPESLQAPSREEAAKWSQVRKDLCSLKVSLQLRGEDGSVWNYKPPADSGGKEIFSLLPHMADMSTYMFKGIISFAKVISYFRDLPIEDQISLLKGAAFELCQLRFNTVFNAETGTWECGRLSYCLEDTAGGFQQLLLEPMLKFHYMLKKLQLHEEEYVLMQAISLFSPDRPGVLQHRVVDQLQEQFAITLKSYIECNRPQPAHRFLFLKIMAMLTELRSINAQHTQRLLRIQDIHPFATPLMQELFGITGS

[12] = Ratio of Cmax in brain to plasma in rat at 10 mg/kg, po; assay type: ADME, organism-based
[13] = molecular target: Voltage-dependent L-type calcium channel subunit alpha-1C (Homo sapiens, UniProt Q13936); assay: Inhibition of Cav1.2 (unknown origin)
Chain of Voltage-dependent L-type calcium channel subunit alpha-1C (Q13936 whole entry): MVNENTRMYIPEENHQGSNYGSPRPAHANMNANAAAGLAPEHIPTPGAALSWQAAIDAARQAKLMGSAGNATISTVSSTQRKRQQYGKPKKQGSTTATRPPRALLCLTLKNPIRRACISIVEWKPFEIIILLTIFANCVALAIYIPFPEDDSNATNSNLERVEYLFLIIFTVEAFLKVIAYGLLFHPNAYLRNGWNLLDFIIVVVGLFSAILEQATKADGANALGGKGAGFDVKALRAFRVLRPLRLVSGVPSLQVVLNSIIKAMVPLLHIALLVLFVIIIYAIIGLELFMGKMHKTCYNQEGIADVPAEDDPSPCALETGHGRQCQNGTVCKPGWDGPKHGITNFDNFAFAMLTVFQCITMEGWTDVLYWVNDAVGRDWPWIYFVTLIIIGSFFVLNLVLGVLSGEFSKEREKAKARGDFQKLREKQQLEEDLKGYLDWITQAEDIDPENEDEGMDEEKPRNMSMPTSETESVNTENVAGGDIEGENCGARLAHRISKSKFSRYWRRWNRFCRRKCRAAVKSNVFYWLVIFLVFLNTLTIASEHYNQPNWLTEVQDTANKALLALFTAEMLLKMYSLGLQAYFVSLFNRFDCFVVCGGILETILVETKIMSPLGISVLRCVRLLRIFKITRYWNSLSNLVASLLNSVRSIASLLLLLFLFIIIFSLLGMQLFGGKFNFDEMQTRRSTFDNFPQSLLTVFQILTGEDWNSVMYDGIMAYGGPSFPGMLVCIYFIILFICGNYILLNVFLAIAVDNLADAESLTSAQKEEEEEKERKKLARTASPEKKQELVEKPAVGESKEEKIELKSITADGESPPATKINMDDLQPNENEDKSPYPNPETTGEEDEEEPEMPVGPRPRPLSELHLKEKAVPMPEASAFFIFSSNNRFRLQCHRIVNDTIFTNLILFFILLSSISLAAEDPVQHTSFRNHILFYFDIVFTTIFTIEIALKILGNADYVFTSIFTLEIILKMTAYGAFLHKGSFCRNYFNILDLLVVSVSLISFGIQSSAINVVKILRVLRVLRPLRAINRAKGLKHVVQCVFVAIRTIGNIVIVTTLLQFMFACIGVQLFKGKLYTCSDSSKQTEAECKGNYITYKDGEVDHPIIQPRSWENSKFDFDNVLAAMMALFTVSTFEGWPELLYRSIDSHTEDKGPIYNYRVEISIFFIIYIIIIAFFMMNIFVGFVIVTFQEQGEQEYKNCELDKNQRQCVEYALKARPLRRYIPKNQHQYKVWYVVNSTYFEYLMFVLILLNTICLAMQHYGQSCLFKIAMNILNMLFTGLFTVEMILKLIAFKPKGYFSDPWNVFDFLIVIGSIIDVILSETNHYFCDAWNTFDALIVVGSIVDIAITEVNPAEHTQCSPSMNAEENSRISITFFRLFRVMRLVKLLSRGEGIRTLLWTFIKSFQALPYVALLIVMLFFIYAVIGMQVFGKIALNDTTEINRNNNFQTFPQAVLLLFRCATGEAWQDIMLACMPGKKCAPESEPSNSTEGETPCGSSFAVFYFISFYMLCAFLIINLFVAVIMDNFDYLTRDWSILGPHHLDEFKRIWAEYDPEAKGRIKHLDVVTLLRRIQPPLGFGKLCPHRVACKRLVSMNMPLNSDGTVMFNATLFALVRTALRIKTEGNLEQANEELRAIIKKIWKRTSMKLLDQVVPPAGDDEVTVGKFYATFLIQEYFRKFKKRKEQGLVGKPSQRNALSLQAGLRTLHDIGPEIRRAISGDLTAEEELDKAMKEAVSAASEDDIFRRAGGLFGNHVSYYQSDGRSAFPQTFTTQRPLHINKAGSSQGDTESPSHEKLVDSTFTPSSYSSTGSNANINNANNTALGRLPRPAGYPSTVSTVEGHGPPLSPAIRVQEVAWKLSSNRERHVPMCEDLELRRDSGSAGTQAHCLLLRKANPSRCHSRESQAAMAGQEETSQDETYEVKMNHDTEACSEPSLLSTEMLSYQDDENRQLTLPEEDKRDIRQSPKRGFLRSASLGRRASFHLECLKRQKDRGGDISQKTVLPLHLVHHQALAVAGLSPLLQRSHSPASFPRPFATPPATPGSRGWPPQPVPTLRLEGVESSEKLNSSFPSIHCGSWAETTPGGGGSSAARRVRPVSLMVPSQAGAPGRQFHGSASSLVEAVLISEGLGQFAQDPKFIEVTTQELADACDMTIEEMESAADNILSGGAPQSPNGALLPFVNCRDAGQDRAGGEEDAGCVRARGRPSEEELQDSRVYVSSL

[14] = Drug uptake in rat brain at 3 mg/kg, po measured after 8 hrs; assay type: ADME, organism-based; conditions: in vivo
[15] = Ratio of drug uptake in rat brain to plasma at 3 mg/kg, po measured after 8 hrs; assay type: ADME, organism-based; conditions: read-out: BPR
[16] = AUC (0 to 24 hrs) in rat brain at 10 mg/kg, po measured upto 24 hrs; assay type: ADME, organism-based; design: dose 10 mg/kg, time < 24 hr, route oral; conditions: in vivo
[17] = molecular target: Cytochrome P450 3A4 (Homo sapiens, UniProt P08684); assay: Inhibition of CYP3A4 (unknown origin); assay type: ADME
[18] = molecular target: Cytochrome P450 2C9 (Homo sapiens, UniProt P11712); assay: Inhibition of CYP2C9 (unknown origin); assay type: ADME
Chain of Cytochrome P450 2C9 (P11712 whole entry): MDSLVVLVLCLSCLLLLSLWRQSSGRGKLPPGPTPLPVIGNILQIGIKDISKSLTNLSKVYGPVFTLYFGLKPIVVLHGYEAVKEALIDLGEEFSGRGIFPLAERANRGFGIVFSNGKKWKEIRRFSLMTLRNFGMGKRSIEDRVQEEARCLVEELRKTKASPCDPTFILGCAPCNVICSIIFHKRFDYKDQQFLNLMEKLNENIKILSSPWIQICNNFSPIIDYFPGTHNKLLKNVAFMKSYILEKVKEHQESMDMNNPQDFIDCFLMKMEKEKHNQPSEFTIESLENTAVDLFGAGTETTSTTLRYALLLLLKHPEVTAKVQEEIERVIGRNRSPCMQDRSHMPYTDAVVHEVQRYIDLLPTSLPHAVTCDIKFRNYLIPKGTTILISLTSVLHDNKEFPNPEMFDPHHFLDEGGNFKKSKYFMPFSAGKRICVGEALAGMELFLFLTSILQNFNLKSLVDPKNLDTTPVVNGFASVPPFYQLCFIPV

[19] = molecular target: T2, Beta-hexosaminidase subunit beta (Homo sapiens, UniProt P07686); assay: Inhibition of human beta hexosaminidase assessed as inhibitory constant using 4-methylumbelliferyl N-acetyl-beta-D-glucosaminide dihydrate as substrate measured every 60 sec for 45 mins by fluorescence spectrophotometry
T2 sequence (P07686 whole entry): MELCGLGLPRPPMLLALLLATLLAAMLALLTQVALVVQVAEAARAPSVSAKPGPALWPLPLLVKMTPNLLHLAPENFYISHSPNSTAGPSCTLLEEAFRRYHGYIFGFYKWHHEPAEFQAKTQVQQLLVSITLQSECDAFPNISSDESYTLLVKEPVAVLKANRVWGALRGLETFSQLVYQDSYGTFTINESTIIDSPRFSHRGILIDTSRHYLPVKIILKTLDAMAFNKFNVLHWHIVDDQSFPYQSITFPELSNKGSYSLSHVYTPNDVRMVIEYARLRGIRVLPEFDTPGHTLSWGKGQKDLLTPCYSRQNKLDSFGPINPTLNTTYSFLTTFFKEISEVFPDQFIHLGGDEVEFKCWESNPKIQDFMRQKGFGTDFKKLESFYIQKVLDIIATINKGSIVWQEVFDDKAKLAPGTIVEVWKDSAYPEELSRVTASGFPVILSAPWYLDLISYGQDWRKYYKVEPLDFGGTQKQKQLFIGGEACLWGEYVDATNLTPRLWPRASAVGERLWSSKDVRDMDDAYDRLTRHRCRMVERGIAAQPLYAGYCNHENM

[20] = system: MDR1; assay: Apparent permeability in pig LLC-PK1 cells transfected with MDR1; assay type: ADME, cell-based, Sus scrofa
[21] = Oral bioavailability in Wistar Han rat at 10 mg/kg; assay type: ADME, organism-based; conditions: in vivo
[22] = Tmax in rat brain at 10 mg/kg, po measured upto 24 hrs; assay type: ADME, organism-based
[23] = Clearance in Wistar Han rat at 2 mg/kg, iv; assay type: ADME, organism-based; conditions: in vivo
[24] = molecular target: Sodium channel protein type 5 subunit alpha (Homo sapiens, UniProt Q14524); assay: Inhibition of Nav1.5 (unknown origin)
Chain of Sodium channel protein type 5 subunit alpha (Q14524 whole entry): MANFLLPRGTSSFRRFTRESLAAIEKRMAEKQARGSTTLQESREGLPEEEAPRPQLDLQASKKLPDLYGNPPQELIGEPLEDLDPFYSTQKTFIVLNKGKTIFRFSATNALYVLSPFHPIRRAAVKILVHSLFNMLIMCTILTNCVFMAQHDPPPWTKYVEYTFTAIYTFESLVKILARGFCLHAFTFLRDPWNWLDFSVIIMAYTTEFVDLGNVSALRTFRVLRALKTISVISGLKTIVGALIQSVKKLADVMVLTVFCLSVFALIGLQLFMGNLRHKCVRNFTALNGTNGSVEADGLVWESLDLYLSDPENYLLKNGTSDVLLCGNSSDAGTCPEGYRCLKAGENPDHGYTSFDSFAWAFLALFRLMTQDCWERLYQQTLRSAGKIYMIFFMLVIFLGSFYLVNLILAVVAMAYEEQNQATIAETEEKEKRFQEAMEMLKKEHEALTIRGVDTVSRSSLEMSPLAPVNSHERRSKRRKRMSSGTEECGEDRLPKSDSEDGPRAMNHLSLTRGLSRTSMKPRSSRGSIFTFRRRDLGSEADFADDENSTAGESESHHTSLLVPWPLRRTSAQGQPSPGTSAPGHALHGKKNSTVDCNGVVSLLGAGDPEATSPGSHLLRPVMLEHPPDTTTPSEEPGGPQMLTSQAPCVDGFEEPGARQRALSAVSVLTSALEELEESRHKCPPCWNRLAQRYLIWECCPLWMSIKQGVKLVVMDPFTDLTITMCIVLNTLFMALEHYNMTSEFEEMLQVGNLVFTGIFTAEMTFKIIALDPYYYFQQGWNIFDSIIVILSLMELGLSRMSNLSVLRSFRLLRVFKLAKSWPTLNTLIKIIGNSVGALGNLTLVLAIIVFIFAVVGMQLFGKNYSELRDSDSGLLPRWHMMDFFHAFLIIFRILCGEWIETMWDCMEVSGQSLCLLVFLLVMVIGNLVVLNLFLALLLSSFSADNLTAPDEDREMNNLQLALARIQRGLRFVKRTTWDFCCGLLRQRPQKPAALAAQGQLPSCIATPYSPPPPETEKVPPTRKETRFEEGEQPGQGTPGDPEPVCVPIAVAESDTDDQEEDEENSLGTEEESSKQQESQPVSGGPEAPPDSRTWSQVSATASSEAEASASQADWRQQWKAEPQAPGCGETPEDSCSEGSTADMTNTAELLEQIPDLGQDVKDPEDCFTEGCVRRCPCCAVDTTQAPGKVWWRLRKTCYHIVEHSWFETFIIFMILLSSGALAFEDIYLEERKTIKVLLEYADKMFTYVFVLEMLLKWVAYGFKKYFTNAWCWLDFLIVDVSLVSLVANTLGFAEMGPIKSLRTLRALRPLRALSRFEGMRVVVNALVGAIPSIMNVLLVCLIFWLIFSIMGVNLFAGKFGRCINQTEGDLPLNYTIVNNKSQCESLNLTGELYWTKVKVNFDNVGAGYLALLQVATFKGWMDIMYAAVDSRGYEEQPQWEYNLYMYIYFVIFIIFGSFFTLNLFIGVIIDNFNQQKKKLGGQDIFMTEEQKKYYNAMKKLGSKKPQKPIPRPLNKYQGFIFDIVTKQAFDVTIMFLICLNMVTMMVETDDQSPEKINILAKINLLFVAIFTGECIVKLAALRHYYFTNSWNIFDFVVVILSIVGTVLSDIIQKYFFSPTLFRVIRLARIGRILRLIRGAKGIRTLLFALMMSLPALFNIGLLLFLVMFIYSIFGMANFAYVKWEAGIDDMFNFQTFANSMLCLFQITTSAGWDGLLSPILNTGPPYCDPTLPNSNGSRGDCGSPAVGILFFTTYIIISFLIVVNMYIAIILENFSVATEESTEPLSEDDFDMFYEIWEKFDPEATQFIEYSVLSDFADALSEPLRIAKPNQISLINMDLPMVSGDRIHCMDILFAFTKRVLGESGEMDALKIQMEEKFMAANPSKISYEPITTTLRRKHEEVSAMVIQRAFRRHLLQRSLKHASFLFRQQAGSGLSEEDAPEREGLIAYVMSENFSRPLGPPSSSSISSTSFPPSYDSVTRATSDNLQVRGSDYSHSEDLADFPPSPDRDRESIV

Vd [1]: 1.5 L/kg
fraction unbound [3]: 0.76
AUC/dose [4]: 0.8 µM·kg·h/mg
IC50 [5]: > 50 µM
fraction unbound at 2.5 µM [6]: 0.76
Kp at 24 h [7]: > 2.7
Drug uptake [8]: 0.051 nmol/g
half-life [9]: 1.4 h
fraction unbound at 2.5 µM [10]: 0.73
EC50 [11]: > 30 µM
Kp [12]: 0.1
Drug uptake [14]: 0.185 nmol/g
Kp at 8 h [15]: 0.94
AUC [16]: 1.14 nM·h/g
IC50 [17]: > 50 µM
IC50 [18]: > 50 µM
Ki [19]: > 10 µM
Papp [20]: ≤ 1 ×10⁻⁶ cm/s
bioavailability [21]: 30%
Tmax [22]: 8 h
clearance [23]: 25 mL/min/kg
Compound: CCNC1=N[C@@H]2[C@@H](O)[C@H](O)[C@@H](CO)O[C@@H]2S1
IC50 [2]: > 30 µM
IC50 [13]: > 30 µM
IC50 [24]: > 30 µM

Reference: ChEMBL document CHEMBL4354805, “Discovery of MK-8719, a Potent O-GlcNAcase Inhibitor as a Potential Treatment for Tauopathies” (J Med Chem, 2019)
